System: MDA-MB-231/Luc+
Assay: PET imaging in breast cancer bone metastasis model
Type: in vivo
Conditions: PET 1 hour after injection into the tail vein, same mouse, FIG. 13B
Protocol: For the breast cancer metastasis model, MDA-MB-231/Luc+ was used, and after 10 days of direct injection of 1×10^5 cells into the left ventricle, IVIS-assisted luminescence images confirmed that bone metastasis occurred to the femoral bones. After verifying the establishment of bone metastasis model of breast cancer, further experiments were carried out (FIG. 12A).

OC[C@H]1O[C@@H](O)[C@H]([18F])[C@@H](O)[C@@H]1O [FDG]
PET detection of breast cancer bone metastasis: difficult to identify the tumor site clearly due to high background uptake

— US11266755B2, “Development and application of tumor diagnostic radioactive probe targeting folic acid receptor” (Kyungpook National University Industry-Academic Cooperation …, priority 2017, dated 2022)
